Data on 3 compounds can be found in patent publication US9457033B2, “Steroid alkaloids and uses thereof as antimicrobial agents against electron transport-deficient microbes and as potentiators for antimicrobial agents against pathogenic bacteria” (priority 2011, dated 2016).

Values after ≈ are worked out from the molar mass of the structure shown. Some results are limits rather than exact numbers.

Experiment [1] relates to S. aureus CF2A-L. Kind of experiment: MIC, microdilution in CAMHB 24 h. Type of experiment: cell-based. Particulars: Staphylococcus aureus, CF2AL; CF2A-L; Human (CF lungs); read-out: MIC. Background: In broth dilution the organism is exposed to a series of concentrations in liquid medium.
For experiment [2], the system named is S. aureus SHY97-3906. Kind of experiment: MIC, microdilution in CAMHB 24 h. Conditions: Staphylococcus aureus, SHY973906; SHY97-3906; Cow (mastitis); read-out: MIC. Type of experiment: cell-based, Staphylococcus aureus.
For experiment [3], the system named is S. aureus Sa228c. Kind of experiment: MIC, microdilution in CAMHB 24 h. In kind it is cell-based, Staphylococcus aureus. Conditions: Staphylococcus aureus, MRSA.
For experiment [4], the system named is S. aureus CF7A-L. Kind of experiment: MIC, microdilution in CAMHB 24 h. In kind it is cell-based, Staphylococcus aureus. Conditions: Staphylococcus aureus; CF7A-L; Human (CF lungs); MRSA; read-out: MIC.
The test system of experiment [5] is S. aureus ATCC 29213. Kind of experiment: MICs of control antibiotics for macromolecular biosynthesis assays. In kind it is cell-based. Conditions: Staphylococcus aureus, ATCC29213; ATCC 29213; data not shown; read-out: MIC.
The test system of experiment [6] is S. aureus CF8E-L. Kind of experiment: MIC, microdilution in CAMHB 24 h. Type of experiment: cell-based, Staphylococcus aureus. Particulars: Staphylococcus aureus, CF8EL; CF8E-L; Human (CF lungs); read-out: MIC.
In experiment [7] the test system is S. aureus Sa220c. Description: MIC, microdilution in CAMHB 24 h. Type of experiment: cell-based, Staphylococcus aureus. Conditions: Staphylococcus aureus; Sa220c; Human (SSTI); MRSA; read-out: MIC.
Experiment [8] concerns S. aureus 8325-4. Kind of experiment: MIC, microdilution in CAMHB 24 h. Conditions: Staphylococcus aureus, 83254; 8325-4; Laboratory strain; read-out: MIC. In kind it is cell-based, Staphylococcus aureus.
The test system of experiment [9] is S. aureus CF6B-L. Description: MIC, microdilution in CAMHB 24 h. Particulars: Staphylococcus aureus, CF6BL; CF6B-L; Human (CF lungs); read-out: MIC. In kind it is cell-based, Staphylococcus aureus.
Experiment [10] has as its system S. aureus CF07-L. Kind of experiment: MIC, microdilution in CAMHB 24 h. In kind it is cell-based, Staphylococcus aureus. Particulars: Staphylococcus aureus, CF07L; CF07-L; Human (CF lungs); read-out: MIC.
The test system of experiment [11] is S. aureus CF4B-L. Description: MIC, microdilution in CAMHB 24 h. Type of experiment: cell-based, Staphylococcus aureus. Conditions: Staphylococcus aureus, CF4BL; CF4B-L; Human (CF lungs); read-out: MIC.
Experiment [12] deals with protein, DNA, RNA and cell wall peptidoglycan biosynthesis in ATCC 29213. Description: Macromolecular biosynthesis assay, incorporation of radiolabeled precursors. Type of experiment: cell-based, Staphylococcus aureus. Particulars: control antibiotics at approximately 4×MIC; FIG. 3A.
The test system of experiment [13] is S. aureus CF35A-L. Description: MIC, microdilution in CAMHB 24 h. In kind it is cell-based, Staphylococcus aureus. Particulars: Staphylococcus aureus; CF35A-L; Human (CF lungs); MRSA; read-out: MIC.
For experiment [14], the system named is S. aureus MRSA COL. Kind of experiment: MIC, microdilution in CAMHB 24 h. In kind it is cell-based, Staphylococcus aureus. Particulars: Staphylococcus aureus; MRSA COL; Human (SSTI); read-out: MIC.
In experiment [15] the test system is S. aureus CF9A-L. Kind of experiment: MIC, microdilution in CAMHB 24 h. Particulars: Staphylococcus aureus; CF9A-L; Human (CF lungs); MRSA; read-out: MIC. In kind it is cell-based, Staphylococcus aureus.
Experiment [16] deals with S. aureus Newman. Kind of experiment: MIC, microdilution in CAMHB 24 h. In kind it is cell-based, Staphylococcus aureus. Particulars: Staphylococcus aureus; Newman; Human (Osteo); read-out: MIC.
Experiment [17] deals with S. aureus ATCC 29213. Kind of experiment: MIC, microdilution in CAMHB 24 h, with or without tomatidine/compound. In kind it is cell-based, Staphylococcus aureus. Particulars: ATCC 29213; for MIC: Staphylococcus aureus, ATCC29213.
Experiment [18] deals with S. aureus Mu50. Description: MIC, microdilution in CAMHB 24 h. In kind it is cell-based, Staphylococcus aureus. Particulars: Staphylococcus aureus; Mu50; Human (SSTI); MRSA, VISA; read-out: MIC.
The subject of experiment [19] is S. aureus CF1A-L. Kind of experiment: MIC, microdilution in CAMHB 24 h. Type of experiment: cell-based, Staphylococcus aureus. Particulars: Staphylococcus aureus, CF1AL; CF1A-L; Human (CF lungs); read-out: MIC.
The test system of experiment [20] is S. aureus Newbould. Description: MIC, microdilution in CAMHB 24 h. Type of experiment: cell-based, Staphylococcus aureus. Particulars: Staphylococcus aureus; Newbould; Cow (mastitis); read-out: MIC.

For orientation: MIC means the least concentration at which growth counts as inhibited. In the case of `CCn1cc(C(=O)O)c(=O)c2cc(F)c(N3CCNCC3)cc21` [Norfloxacin, norfloxacin], the MIC in experiment [1] is 0.5 to 1 µg/mL (≈ 1.57 to 3.13 µM); in experiment [2], 0.5 to 1 µg/mL (≈ 1.57 to 3.13 µM); in [3], above 64 µg/mL; in [4] it was above 64 µg/mL; in experiment [5], 1 µg/mL (≈ 3.13 µM); in experiment [6], 4 µg/mL (≈ 12.5 µM). Also, the MIC was above 64 µg/mL in experiment [7]; 1 to 2 µg/mL (≈ 3.13 to 6.26 µM) in experiment [8]; above 64 µg/mL in experiment [9]; 1 to 2 µg/mL (≈ 3.13 to 6.26 µM) in experiment [10]; 1 µg/mL (≈ 3.13 µM) in [11]; above 64 µg/mL in experiment [13]. Besides, the minimal inhibitory concentration (MIC) in experiment [14] is 2 to 4 µg/mL (≈ 6.26 to 12.5 µM); in experiment [15], above 64 µg/mL; in experiment [16], 1 µg/mL (≈ 3.13 µM); in experiment [17] (Human (SSTI), read-out: MIC), 1 to 2 µg/mL (≈ 3.13 to 6.26 µM); in experiment [17] (absence of tomatidine, read-out: MIC −TO), 1 to 2 µg/mL (≈ 3.13 to 6.26 µM); in experiment [17] (presence of tomatidine at 8 μg/ml, read-out: MIC +TO), 1 to 2 µg/mL. The minimum inhibitory concentration (MIC) is above 64 µg/mL in experiment [18], 1 µg/mL (≈ 3.13 µM) in experiment [19] and 0.5 µg/mL (≈ 1.57 µM) in [20]. In experiment [12], the “incorporation of radiolabeled precursors into the targeted macromolecules” value is reported as “preferentially inhibited”. Also, in experiment [17] (tomatidine at 8 μg/ml), the “Fold (−TO/+TO)” value is 1 fold.

For the compound `O=C(N[C@H](CO)[C@H](O)c1ccc([N+](=O)[O-])cc1)C(Cl)Cl` [chloramphenicol], in experiment [5], the minimal inhibitory concentration (MIC) was 8 to 16 µg/mL (≈ 24.8 to 49.5 µM). Further, the “incorporation of radiolabeled precursors into the targeted macromolecules” value in [12] is reported as “preferentially inhibited”.

Take `CO[C@H]1/C=C/O[C@@]2(C)Oc3c(C)c(O)c4c(O)c(c(/C=N/N5CCN(C)CC5)c(O)c4c3C2=O)NC(=O)/C(C)=C\C=C\[C@H](C)[C@H](O)[C@@H](C)[C@@H](O)[C@@H](C)[C@H](OC(C)=O)[C@@H]1C` [rifampicin]: in [5], the minimal inhibitory concentration (MIC) lay in the range of 0.008 to 0.015 µg/mL (≈ 0.00972 to 0.0182 µM).
